Consider 22 compounds from PubChem BioAssay (NCI).

Holding throughout (assay): NCI-60 cell line screen, 48 h
Assay [1] concerns DU-145 prostate.
The subject of assay [2] is HCT-15 colon.
For assay [3], the system named is HOP-62 NSCLC.
In assay [4] the test system is K-562 leukemia.
Assay [5] has as its system MDA-N.
Assay [6] has as its system NCI-H226 lung.
The subject of assay [7] is PC-3 prostate.
Assay [8] concerns SNB-75 CNS.
Assay [9] deals with UO-31 renal.
Assay [10] relates to NCI-H522 lung.

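Values below derive from 48-hour exposures of cells grown in 96-well plates, with endpoints linearly interpolated between the two concentrations bracketing the appropriate inhibition level. Definition used: TGI = concentration required for complete inhibition of growth.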

For `CC1(C)OCC2OC3([C@@H]4OC(C)(C)O[C@H]4CO)OC(C)(C)OC3C2O1` (some centres undefined), the TGI in assay [1], in [2], in assay [3], in [4], in [5] and in assay [6] was > 100 µM in each case. Also, the TGI in [7], in assay [8] and in assay [9] was > 100 µM in each case.

With `CN1C(=O)N(C)C(O)C(Cl)(Br)C1=O` (centres undefined), the TGI in assay [1], in assay [2], in [4], in assay [5], in assay [6] and in assay [10] was > 100 µM each time. In addition, the TGI in assay [7], in [8] and in assay [9] was > 100 µM each time.

Take `O=P(O)(O)c1ccccc1Oc1ccccc1`: the TGI in [1], in assay [2], in assay [3], in assay [4], in assay [5] and in assay [6] was > 100 µM each time. The TGI in assay [10], in [7], in assay [8] and in [9] was > 100 µM throughout.

As for `COc1ccc(-c2c3c(n(C4OC(CO)C(O)C(O)C4O)c(=S)c2C#N)CCC3)cc1` (centres undefined), the TGI in assay [1], in assay [2], in assay [3], in assay [4], in [5] and in [7] was > 100 µM each time. Further, the TGI in assay [8] and in assay [9] was > 100 µM throughout.

With `Cc1[nH]c(=O)nc(NCCNCCO)c1C(=O)Nc1cccc2cc3ccccc3cc12`, the TGI in assay [1], in assay [2], in assay [3], in assay [4], in assay [5] and in assay [6] was > 100 µM each time. The TGI in assay [10], in assay [7] and in [8] was > 100 µM in each case.

On to `N#C/C(=C/n1c(=S)[nH]c2ccc([N+](=O)[O-])cc21)C(N)=O`, for which the TGI in [1], in assay [2], in [3], in [5], in assay [6] and in assay [7] was > 100 µM in each case. The TGI in assay [8] and in [9] was > 100 µM throughout.

Turning to `CC(=O)OCC1OC(n2c(-c3ccccc3)c(N=Nc3ccccc3)c(C)c(C#N)c2=S)C(OC(C)=O)C(OC(C)=O)C1OC(C)=O` (centres undefined), the TGI in assay [1], in assay [2], in [3], in [4], in assay [5] and in assay [7] was > 100 µM in each case. Also, the TGI in assay [8] and in assay [9] was > 100 µM throughout.

Take `N#C/C(C(=O)Nc1ccc(Cl)cc1)=C(/N)N1CCCC1`: the TGI in assay [1], in assay [2], in [3], in assay [4], in assay [5] and in [6] was > 100 µM throughout. Moreover, the TGI in assay [7], in [8] and in assay [9] was > 100 µM in each case.

For the compound `Cc1cc(S(=O)(=O)Nc2n[nH]c(-c3ccccn3)n2)c(S)cc1Cl`, the TGI is 96 µM in assay [1]; 20.9 µM in [2]; 59 µM in [3]; > 100 µM in assay [5]; 30.5 µM in assay [6]; 72.4 µM in assay [10]. The TGI was > 100 µM in assay [7], 85.8 µM in [8] and 10.5 µM in [9].

For the compound `c1cncc(CC2(c3cc4ccccc4[nH]3)OCCO2)c1`, the TGI in assay [1], in assay [2], in assay [5], in assay [6], in [10] and in [7] was > 100 µM in each case. Further, the TGI in assay [8] and in assay [9] was > 100 µM throughout.

With `CSc1nc(NC(C)C)c2c(n1)Sc1nc3ccccc3n1N=C2`, the TGI was 31.3 µM in assay [1]; > 100 µM in assay [2]; 22.2 µM in [3]; > 100 µM in [4]; > 100 µM in [5]; > 100 µM in assay [6]. The values for the TGI in assay [10], in [7] and in assay [9] were 50.5 µM, > 100 µM and 25.6 µM, respectively.

As for `CCCCC1=C(C(=O)N2CCOCC2)C2(OCCO2)C1=O`, the TGI is > 100 µM in assay [1]; 40.3 µM in assay [2]; 54.1 µM in assay [3]; 71.2 µM in assay [5]; 20.5 µM in [6]; 32.6 µM in assay [10]. The figures for the TGI in assay [7], in [8] and in [9] were 98.3 µM, > 100 µM and 30.3 µM, respectively.

Regarding `COc1ccc(Nc2nc(N)c(C(=O)c3c[nH]c4ccccc34)s2)cc1`, the TGI in assay [1] was 10.2 µM; in assay [2], 8.91 µM; in assay [3] it was > 71.4 µM; in assay [5], 0.878 µM; in [6], 36.3 µM; in assay [7] it was > 100 µM. Also, the figures for the TGI in assay [8] and in [9] were 6.56 µM and > 100 µM, respectively.

`C=C1C(OC2O[C@@H]3O[C@@]4(C)CC[C@H]5[C@H](C)CC[C@@H](C2=C)[C@@]35O4)O[C@@H]2O[C@@]3(C)CC[C@H]4[C@H](C)CC[C@@H]1[C@@]24O3` (some centres undefined): the TGI in assay [1], in assay [2], in [3], in [4], in [5] and in [6] was > 50 µM each time. For the same compound, the TGI in assay [10], in assay [7] and in [9] was > 50 µM throughout.

As to `NC(=O)c1csc(C2(O)COC(CO)C2O)n1` (centres undefined), the TGI in assay [1], in [2], in assay [3], in [5], in [6] and in [10] was > 100 µM each time. In addition, the TGI in assay [7], in assay [8] and in [9] was > 100 µM each time.

Take `COC(=O)Cc1ccc2c(cnn2-c2ccccc2)c1OC`: the TGI in [1], in assay [2], in assay [3], in assay [4], in assay [5] and in assay [6] was > 10 µM in each case. Besides, the TGI in assay [10], in [7] and in assay [8] was > 10 µM each time.

As for `O=C1NC2CCCCC2N=C1CC(=O)c1ccc(Br)cc1` (centres undefined), the TGI is > 100 µM in assay [1]; > 100 µM in assay [2]; > 100 µM in assay [3]; > 100 µM in assay [4]; > 100 µM in [5]; 81.2 µM in [6]. In addition, the TGI in assay [10], in assay [7] and in assay [9] was > 100 µM each time.

Regarding `CN(C)CC1CCC/C(=C\c2ccc(OC(=O)c3ccc(Cl)cc3)cc2)C1=O` (centres undefined), the TGI in assay [1] amounted to 6.79 µM; in [2], 3.3 µM; in assay [3] it was 12.6 µM; in assay [4] it was 3.8 µM; in assay [5], 7.45 µM; in assay [6] it was 9.77 µM. The values for the TGI in assay [7], in assay [8] and in [9] were 18.4 µM, 9.16 µM and 2.97 µM, respectively.

With `COc1cc(C(=O)Oc2ccc3c(c2)OCO3)cc(OC)c1OC`, the TGI in [1], in assay [2], in [3], in [5], in assay [6] and in assay [10] was > 100 µM in each case. Besides, the TGI in [7], in [8] and in assay [9] was > 100 µM in each case.

As to `COc1ccc(/C=c2\s/c(=C3/SC(=S)N(c4ccccc4)C3=O)n(-c3ccccc3)c2=O)cc1`, the TGI in assay [1] was > 100 µM; in assay [2], > 100 µM; in assay [3], 69.9 µM; in [4], > 100 µM; in assay [5] it was > 100 µM; in [10], > 100 µM. In addition, the values for the TGI in [7], in [8] and in [9] were > 100 µM, 21.4 µM and > 100 µM, respectively.

Consider `O=c1c(Cc2ccc(Cl)cc2)nnc2sc(-c3ccc(-c4ccc(F)c(Cl)c4)o3)nn12`, for which the TGI in [1], in assay [2], in assay [3], in assay [4], in [5] and in assay [6] was > 100 µM each time. Moreover, the TGI in assay [10], in [7] and in [9] was > 100 µM throughout.

Consider `C=C1OC(c2ccccc2NC)=NC12CCCCC2`, for which the TGI in assay [1], in assay [2], in assay [3], in assay [4], in [5] and in assay [6] was > 100 µM throughout. Besides, the TGI in assay [10], in assay [7] and in assay [9] was > 100 µM in each case.
